Data reported in ChEMBL document CHEMBL4145536, “Design, synthesis and biological evaluation of novel bouchardatine analogs as potential inhibitors of adipogenesis/lipogenesis in 3T3-L1 adipocytes” (Eur J Med Chem, 2018).
Activity calls are given as the source filed them. The calls are words filed in the database; no cut-off is given here.

How the values were obtained:
3T3-L1 [1] = assay: Lipid lowering activity in mouse 3T3L1 cells assessed as decrease in triglyceride level at 10 uM for 6 days by oil red o-staining based assay relative to control; type: functional; set-up: scale not given: the % may be the effect or the level left
HepG2 [2] = assay: Lipid lowering activity in human HepG2 cells assessed as decrease in triglyceride level at 10 uM for 6 days in presence of oleic acid by oil red o-staining based assay relative to control; type: functional; set-up: scale not given: the % may be the effect or the level left
3T3-L1 [3] = assay: Cytotoxicity against mouse 3T3L1 cells assessed as decrease in cell viability after 24 hrs by MTT assay; type: cell-based; settings: 3T3-L1, 24 h
HepG2 [4] = assay: Cytotoxicity against human HepG2 cells assessed as decrease in cell viability after 24 hrs by MTT assay; type: cell-based; settings: HepG2, 24 h
3T3-L1 [5] = assay: Lipid lowering activity in mouse 3T3L1 cells assessed as decrease in triglyceride level at 10 uM for 6 days by oil red o-staining based microscopic assay; type: functional, cell-based
3T3-L1 [6] = assay: Lipid lowering activity in mouse 3T3L1 cells assessed as decrease in triglyceride level treated 2 days post confluent for 9 days by oil red o-staining based assay; type: functional, cell-based
3T3-L1 [7] = assay: Cytotoxicity against mouse 3T3L1 cells assessed as decrease in cell viability up to 10 uM measured up to 72 hrs by LDH release assay; type: cell-based; settings: 3t3-l1, 72 h
3T3-L1 [8] = assay: Lipid lowering activity in mouse 3T3L1 cells assessed as inhibition of adipogenesis by measuring decrease in triglyceride level at 5 uM treated on day 0 to 3 starting from 2 days post confluent by oil red o-staining based assay relative to control; type: functional
3T3-L1 [9] = assay: Lipid lowering activity in mouse 3T3L1 cells assessed as inhibition of lipogenesis by measuring decrease in triglyceride level at 5 uM treated on day 3 to 6 starting from 2 days post confluent by oil red o-staining based assay relative to control; type: functional
3T3-L1 [10] = assay: Lipid lowering activity in mouse 3T3L1 cells assessed as inhibition of terminal differentiation stage by measuring decrease in triglyceride level at 5 uM treated on day 6 to 9 starting from 2 days post confluent by oil red o-staining based assay relative to control; type: functional
3T3-L1 [11] = assay: Lipid lowering activity in mouse 3T3L1 cells assessed as decrease in triglyceride level at 5 uM treated on day 0 to 6 starting from 2 days post confluent by oil red o-staining based assay relative to control; type: functional; set-up: scale not given: the % may be the effect or the level left
3T3-L1 [12] = assay: Lipid lowering activity in mouse 3T3L1 cells assessed as decrease in triglyceride level at 5 uM treated on day 0 to 9 starting from 2 days post confluent by oil red o-staining based assay relative to control; type: functional; set-up: scale not given: the % may be the effect or the level left
3T3-L1 [13] = assay: Lipid lowering activity in mouse 3T3L1 cells assessed as decrease in triglyceride level at 5 uM by oil red o-staining based assay; type: functional, cell-based; settings: TDE = time-dependent effect
3T3-L1 [14] = assay: Inhibition of cell proliferation in mouse 3T3L1 cells assessed as reduction in adipogenic cocktail-induced mitotic cell clonal expansion at 1 to 10 uM after 72 hrs by hemocytometric method; type: functional, cell-based
3T3-L1 [15] = assay: Cell cycle arrest in mouse 3T3L1 cells assessed as accumulation at G0/G1 phase at 1 uM after 24 hrs by propidium iodide staining based FACS analysis (reference value: 48.7%); type: functional
3T3-L1 [16] = assay: Cell cycle arrest in mouse 3T3L1 cells assessed as accumulation at G0/G1 phase at 5 uM after 24 hrs by propidium iodide staining based FACS analysis (reference value: 48.7%); type: functional
3T3-L1 [17] = assay: Cell cycle arrest in mouse 3T3L1 cells assessed as accumulation at G0/G1 phase at 10 uM after 24 hrs by propidium iodide staining based FACS analysis (reference value: 48.7%); type: functional
3T3-L1 [18] = assay: Cell cycle arrest in mouse 3T3L1 cells assessed as decrease in S-phase at 1 to 10 uM after 24 hrs by propidium iodide staining based FACS analysis; type: functional
Mus musculus [19] = organism: Mus musculus; assay: Activation of AMPK pathway in mouse 3T3L1 cells assessed as decrease in PPARgamma mRNA level at 1 to 10 uM measured on day 3 post treatment by RT-PCR method; type: cell-based
Mus musculus [20] = organism: Mus musculus; assay: Activation of AMPK pathway in mouse 3T3L1 cells assessed as decrease in C/EBPbeta mRNA level measured after 24 hrs by RT-PCR method; type: cell-based
Mus musculus [21] = organism: Mus musculus; assay: Activation of AMPK pathway in mouse 3T3L1 cells assessed as decrease in C/EBPgamma mRNA level measured after 24 hrs by RT-PCR method; type: cell-based
Mus musculus [22] = organism: Mus musculus; assay: Activation of AMPK pathway in mouse 3T3L1 cells assessed as decrease in C/EBPalpha mRNA level at 1 to 10 uM measured on day 3 post treatment by RT-PCR method; type: cell-based
Mus musculus [23] = organism: Mus musculus; assay: Activation of AMPK pathway in mouse 3T3L1 cells assessed as decrease in SREBP-1c mRNA level at 1 to 10 uM measured on day 6 post treatment by RT-PCR method; type: cell-based
Mus musculus [24] = organism: Mus musculus; assay: Activation of AMPK pathway in mouse 3T3L1 cells assessed as decrease in […] mRNA level measured on day 6 post treatment by RT-PCR method; type: cell-based
Mus musculus [25] = organism: Mus musculus; assay: Activation of AMPK pathway in mouse 3T3L1 cells assessed as decrease in FAS mRNA level measured on day 6 post treatment by RT-PCR method; type: cell-based
Mus musculus [26] = organism: Mus musculus; assay: Activation of AMPK pathway in mouse 3T3L1 cells assessed as decrease in SCD1 mRNA level measured on day 6 post treatment by RT-PCR method; type: cell-based
Mus musculus [27] = organism: Mus musculus; assay: Activation of AMPK pathway in mouse 3T3L1 cells assessed as reduction in C/EBPdelta protein expression at 5 uM after 4 hrs by Western blot analysis; type: cell-based
Mus musculus [28] = organism: Mus musculus; assay: Activation of AMPK pathway in mouse 3T3L1 cells assessed as reduction in C/EBPbeta protein expression at 5 uM after 4 hrs by Western blot analysis; type: cell-based
Mus musculus [29] = organism: Mus musculus; assay: Induction of AMPKalpha phosphorylation at Thr172 residue in mouse 3T3L1 cells at 5 uM after 4 hrs by Western blot analysis; type: cell-based
Mus musculus [30] = organism: Mus musculus; assay: Activation of AMPK pathway in mouse 3T3L1 cells assessed as induction of […] phosphorylation at Ser79 residue measured on day 6 post treatment by Western blot analysis; type: cell-based
Mus musculus [31] = organism: Mus musculus; assay: Induction of AMPKalpha phosphorylation at Thr172 residue in mouse 3T3L1 cells measured on day 3 post treatment by Western blot analysis; type: cell-based
Mus musculus [32] = organism: Mus musculus; assay: Activation of AMPK pathway in mouse 3T3L1 cells assessed as reduction in C/EBPbeta protein expression at 2 mM after 4 hrs by Western blot analysis; type: cell-based
Mus musculus [33] = organism: Mus musculus; assay: Activation of AMPK pathway in mouse 3T3L1 cells assessed as reduction in C/EBPdelta protein expression at 2 mM after 4 hrs by Western blot analysis; type: cell-based
[34] = Solubility of the compound; type: physicochemical

Question: What does the source list for `Fc1c(-c2nc(NCCCN3CCCC3)c3ccccc3n2)[nH]c2ccccc12`?
Answer: Activity (3T3-L1 [1]): 79.1%; Activity (HepG2 [2]): 20.8%; IC50 (3T3-L1 [3]): 37.7 µM; IC50 (HepG2 [4]): 25.1 µM; Activity (3T3-L1 [5]): Active; Activity (3T3-L1 [6]): Dose-dependent effect; EC50 (3T3-L1 [6]): 0.24 µM; Activity (3T3-L1 [7]): Non-Toxic; inhibition at 5 µM (3T3-L1 [8]): 71.1%; inhibition at 5 µM (3T3-L1 [9]): 51.6%; inhibition at 5 µM (3T3-L1 [10]): 22.1%; Activity (3T3-L1 [11]): 74.2%; Activity (3T3-L1 [12]): 80.5%; Activity (3T3-L1 [13]): Tde; inhibition (3T3-L1 [14]): Active; Activity (3T3-L1 [15]): 60.8%; Activity (3T3-L1 [16]): 66.1%; Activity (3T3-L1 [17]): 77.6%; Activity (3T3-L1 [18]): Active; Activity (Mus musculus [19]): Active; Activity (Mus musculus [20]): Dose-dependent effect; Activity (Mus musculus [21]): Dose-dependent effect; Activity (Mus musculus [22]): Active; Activity (Mus musculus [23]): Active; Activity (Mus musculus [24]): Dose-dependent effect; Activity (Mus musculus [25]): Dose-dependent effect; Activity (Mus musculus [26]): Dose-dependent effect; Activity (Mus musculus [27]): Active; Activity (Mus musculus [28]): Active; Activity (Mus musculus [29]): Active; Activity (Mus musculus [30]): Active; Activity (Mus musculus [31]): Active; Activity (Mus musculus [32]): Active; Activity (Mus musculus [33]): Active

Question: Which results are given for `O=Cc1c(-c2nc3ccccc3c(=O)[nH]2)[nH]c2ccccc12`?
Answer: Activity (3T3-L1 [1]): 20.1%; Activity (HepG2 [2]): 24.1%; IC50 (3T3-L1 [3]): > 50 µM; IC50 (HepG2 [4]): > 50 µM; Activity (3T3-L1 [5]): Active; solubility [34]: Insoluble
